In patent US8859503B2, “Methods and compositions targeting viral and cellular ITAM motifs, and use of same in identifying compounds with therapeutic activity” (priority 2005, dated 2014):
“Also recorded” adds a separate entry of the source. Ends that are not written are not given here. * marks the point of attachment. Biotin = O=C1N[C@H]2[C@H](CS[C@H]2CCCCC(=O)*)N1

Legend:
[1] = system: Env-expressing NMuMG cells; test: Three-dimensional Matrigel cultures of MMTV Env-expressing NMuMG cells (acinar structure morphology/size); type: cell-based, murine
Protocol: NMuMG cells (5×10^3 cells per chamber) were cultured on Matrigel® (BD Biosciences) cushions. Assay medium (DMEM/F12 supplemented with 2% donor horse serum, 10 μg/ml insulin, 1 ng/ml cholera toxin, 100 μg/ml hydrocortisone, 50 U/ml penicillin, and 50 μg/ml streptomycin) containing 2% Matrigel was replaced every 4 days. The structures were analyzed, at a magnification of 20, on a Zeiss Axiovert 200M equipped with PCO SensiCam video camera and Slidebook® software (Intelligent Imaging Innovations). Cell staining was performed with rat anti-human Keratin-18 (Lab Vision), rat anti-human E-cadherin and goat anti-rat IgG-FITC conjugated antibodies (Jackson ImmunoResearch Laboratories), or goat anti-rat IgG-Alexa-555 conjugated antibodies (Molecular Probes). Quantification of structure size was performed using a 10×50-μm grid reticule (Fisher Scientific) and 20-100 structures were counted from each chamber. The inhibitors PP2 and Piceatannol (EMD) were added on day 3 of culture, and pictures were taken on day 6. In apoptosis assays, TNF (R&D Systems) or TRAIL (BIOMOL Research Laboratories, Inc) were added on day 5 of culture, and pictures were taken on day 6. TUNEL assay was performed using a kit from Roche Applied Science (Indianapolis, Ind.).
(§1) NmuMG (wild-type or Env-expressing) or Mm5MT cells (10^4) were incubated on Matrigel (BD Labware) for six days, as described previously. Cells were treated with or without ITAM peptide (10 μM) or the Syk inhibitors piceatannol (1 μg/ml) and SI-31 (100 nM) (EMD). The acinar structures were analyzed and captured, at a magnification of 20×, on a Zeiss Axiovert 200M equipped with PCO SensiCam video camera and Slidebook v4 software (Intelligent Imaging Innovations). Three-dimensional structures >50 μm were considered enlarged. Data shown is based on size of 50 random acini.

Mm5MT cells = test: Three-dimensional Matrigel cultures of MMTV+ Mm5MT tumor cells; type: cell-based; conditions: for reversion to round 3D phenotype: six days
Protocol: as §1, with “Cells were treated with or without ITAM peptide (10 μM) or the Syk inhibitors piceatannol (1 μg/ml) and SI-31 (100 nM) (EMD).” left out

[2] = Water solubility of the ITAM fragment; type: physicochemical
[3] = system: NIH3T3 cells expressing the ITAM-containing MAHB chimera; test: Soft agar colony formation assay of NIH3T3 cells expressing the ITAM-containing MAHB chimera; type: cell-based, murine
Protocol: NIH3T3 cells expressing the ITAM-containing MAHB chimera (1×10^4) were suspended in 0.3% agar in DMEM containing 10% FBS. Cells from each transduction group were plated in 6-well plates pre-coated with 0.6% agar base in DMEM containing 10% FBS. Cells were fed with fresh top agar (0.3% agar in DMEM with 10% FBS, with or without ITAM peptide) every 5 days. Colonies were counted and measured using a graduated reticule under microscope at 10× magnification on day 21.

[4] = system: ITAM-based BCR signaling (tyrosine phosphorylation) in splenic B cells; test: Western blotting for tyrosine phosphorylation after anti-BCR stimulation; type: cell-based, mouse
Protocol: Splenic B cells (10^7) were pre-incubated with 0-100 μM ITAM peptide for 3 h at 37° C. and then stimulated with anti-BCR antibodies as above for further 5 min. Lysates (20 μg/lane) were run on SDS-PAGE, blotted and detected with anti-phosphotyrosine antibody (4G10-HRP; Upstate Biotech). Molecular weights shown are based on the molecular weight markers.

RBL-2H3 cells = test: FcεR1-mediated degranulation of RBL-2H3 cells (hexosaminidase activity); type: cell-based; conditions: ITAM peptide 25 μM; anti-DNP IgE 1 μg/ml, DNP-HSA 10 ng/ml
Protocol: The effect of ITAM peptide on mast cell function was evaluated by degranulation induced by FcεR1 cross-linking. RBL-2H3 cells (5×10^4) were incubated overnight with anti-DNP IgE (1 μg/ml). Subsequently, degranulation was induced with DNP-HSA (10 ng/ml, 2 h), in the presence or absence of ITAM peptide (25 μM). Degranulation, as detected by hexosaminidase activity, is depicted as percent of maximal activity obtained from whole cell lysates.

mouse splenic B cells = test: B lymphocyte stimulation and proliferation ([3H] thymidine incorporation); type: cell-based; conditions: 20 μM peptide
Protocol: Proliferation of mouse splenic B cells: cells (5×10^5) were incubated for 48 h in the presence or absence of 20 μM peptide and stimulated with 10 μg/ml anti-BCR antibodies (Jackson ImmunoResearch Laboratories), LPS (Sigma) or anti-CD40 antibodies (BD Pharmingen). [^3H] Thymidine incorporation (1 μCi/well) was measured in the last 4 h of the experiment.

Syk = target: T1, Syk (Mus musculus, UniProt P48025); test: Peptide:Syk binding assay (biotin-peptide pull-down from Bal-17 B cell lysates); conditions: peptide 50 μM; Bal-17 whole cell lysates; n=3
T1 construct: Whole cell lyastes of Bal-17 B cells (3×10^7) were used; endogenous in cells; host or cells: Bal-17 B cells (whole cell lysate)
Protocol: Whole cell lyastes of Bal-17 B cells (3×10^7) were used for quantification of ITAM peptide interactions. Equivalent cell lysates were mixed with either biotin-KRPPAVLL (control peptide; SEQ ID No 46) or biotin-KRPPYVLL (ITAM peptide; SEQ ID No 47) in concentration between 10-50 μM. Pull-downs were performed with Immobilized Neutravidin Protein (Pierce), as previously described. The resulting lysate pull-downs were run on SDS-PAGE were detected by Western blotting with rabbit anti-Syk antibody (N-19, Santa Cruz). Donkey anti-rabbit IgG-alkaline phosphatase conjugated antibody was used as a secondary antibody (Jackson ImmunoResearch Laboratories). For development and quantification, an ECF substrate was used followed by a scan using Storm 860 and analysis by ImageQuant 5.2 (all obtained from Amersham Biosciences).

Syk-GFP = target: T2, Syk-GFP (Mus musculus, UniProt P48025); test: Co-localization of dsRed peptide chimeras with Syk-GFP in 293T cells by confocal microscopy; type: cell-based; conditions: transiently transfected human 293T cells
T2 construct: host or cells: Human 293T cells, transient transfection
Excerpt: Peptide conjugates were produced by QuikChange XL® kit from Stratagene. The dsRed2-C1 construct (BD Clontech) was modified using the following primers: dsRed.YVLL: 5′-[…]-3′ (SEQ ID No 42); and 5′-[…]-3 (SEQ ID No 43).
dsRed.KRPPYVLL: 5′-[…]-3′ (SEQ ID No 44); and 5′-[…]-3′ (SEQ ID No 45). The Syk-eGFP construct was a provided by Dr. Robert Geahlen (Purdue University).
For laser scanning microscopy a Zeiss LSM510 META laser scanning confocal module on a Zeiss Axiovert 200M inverted microscope was used. Objective used: C-APO 40×/1.2 water DIC. Lasers: 488 nm laser line from Argon laser (30 mW) for eGFP excitation; 543 nm laser line from HeNe laser (1 mW) for dsRed excitation. Analysis was performed on Zeiss LSM510 META v3.2 software.

T2 sequence (P48025 whole entry): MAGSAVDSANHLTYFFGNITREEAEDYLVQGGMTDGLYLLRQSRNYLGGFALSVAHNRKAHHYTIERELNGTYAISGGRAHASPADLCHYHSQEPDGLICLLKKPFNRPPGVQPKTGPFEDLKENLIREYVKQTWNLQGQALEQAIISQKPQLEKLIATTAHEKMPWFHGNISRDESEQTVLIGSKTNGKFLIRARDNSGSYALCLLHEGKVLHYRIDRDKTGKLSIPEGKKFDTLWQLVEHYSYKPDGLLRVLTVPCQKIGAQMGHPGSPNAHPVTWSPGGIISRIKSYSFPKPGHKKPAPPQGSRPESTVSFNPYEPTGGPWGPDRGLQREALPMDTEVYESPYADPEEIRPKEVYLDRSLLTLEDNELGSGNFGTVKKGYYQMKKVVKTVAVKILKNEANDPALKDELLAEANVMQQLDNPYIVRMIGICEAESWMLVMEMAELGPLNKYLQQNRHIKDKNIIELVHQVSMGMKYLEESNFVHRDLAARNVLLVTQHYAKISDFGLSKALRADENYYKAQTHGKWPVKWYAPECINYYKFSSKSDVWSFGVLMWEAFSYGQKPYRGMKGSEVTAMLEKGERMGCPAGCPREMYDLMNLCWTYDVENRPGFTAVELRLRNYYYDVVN
T1 sequence (P48025 whole entry): as above

With CC(C)(C)n1nc(-c2ccc(Cl)cc2)c2c(N)ncnc21 [PP2] the “morphological changes associated with Env transformation” value ([1]; Env+ NMuMG 3D cultures, inhibitor 500 ng/ml added on day 3, imaged on day 6) was “sufficient to block morphological changes associated with Env transformation” and the “phenotypic reversal of transformed phenotype to normal round acini” value (“phenotypic reversal” below) ([1]; Src inhibitor PP2, concentration not printed for this experiment) was “effective in phenotypic reversal”.

With Cn1cc(C=C2C(=O)Nc3ccc(S(N)(=O)=O)cc32)c2ccccc21 [SI-31, reference compound] the “reversion to round 3D phenotype” value (Mm5MT cells; SI-31 100 nM) was “readily apparent” and the “phenotypic reversal” value ([1]; SI-31 100 nM, six days) was “effective in phenotypic reversal”.

For Ac-KRPPYVLL [KRPPYVLL], the water solubility [2] was “water-soluble”.

In the case of Ac-KRPPYVLL-OH [ITAM peptide], the “size and number of colonies formed” value ([3]; ITAM peptide 0-20 μM added with feeding media, colonies >75 μm scored on day 21) is reported as “reduction in both size and number of colonies formed”, the “colony formation of ITAM+ fibroblasts” value ([3]; chronic treatment with ITAM peptide in feeding media) is reported as “sufficient to reduce colony formation” and the “tyrosine phosphorylation associated with ITAM-based BCR signaling” value ([4]; higher concentrations of the peptide) is reported as “neither stimulatory nor inhibitory”. For the same molecule, the “tyrosine phosphorylation associated with ITAM-based BCR signaling” value ([4]; relevant peptide concentrations (0-100 μM tested), 3 h pre-incubation, anti-BCR 5 min, data not shown) was “visibly reduced; also recorded: Inhibition of tyrosine phosphorylation was confirmed”, the Mm5MT acini phenotype (Mm5MT cells; 3D cultures on Matrigel six days, treated with ITAM peptide, Src or Syk inhibitors) was “exhibited a more round phenotype” and the “reversion to round 3D phenotype” value (Mm5MT cells; ITAM peptide 20 μM (5-20 μM tested)) was “readily apparent”. The “FcεRI-induced degranulation (hexosaminidase activity)” value (RBL-2H3 cells) was “significantly inhibited; also recorded: significant reduction (p=0.093)”, the “phenotypic reversal” value ([1]; ITAM peptide 10 μM, Env-expressing NMuMG on Matrigel six days) was “as effective in phenotypic reversal as the Src inhibitor PP2 and Syk inhibitors Piceatannol and SI-31” and the “BCR-induced proliferation ([3H] thymidine incorporation)” value (mouse splenic B cells; 48 h, 10 μg/ml anti-BCR antibodies) was “inhibition of BCR-induced proliferation; also recorded: highly significant (p=0.0017)”. The “stimulation of B lymphocytes by LPS (non-ITAM)” value (mouse splenic B cells; LPS 20 μg/ml, data not shown) was “no significant effect” and the “stimulation of B lymphocytes through CD40 (non-ITAM)” value (mouse splenic B cells; anti-CD40 5 μg/ml, data not shown) was “no significant effect”.

In the case of Biotin-KRPPYVLL, the “Syk detected in pull-down, over control peptide biotin-KRPPAVLL” value (Syk) is reported as 1.5- to 2 fold.

In the case of “dsRed.KRPPYVLL: dsRed chimera protein with the entire 8 amino acid ITAM fragment (dsRed-KRPPYVLL)”, the “co-localization with Syk-GFP” value (Syk-GFP) is reported as “co-localization was still detected”.

In the case of “dsRed.YVLL: dsRed chimera protein with 4 amino acids (YVLL) of the ITAM fragment (dsRed-YVLL)”, the “co-localization with Syk-GFP” value (Syk-GFP) is reported as “co-localization was readily observed”.
